From patent publication US9796753B2, “N-substituted indenoisoquinolines and syntheses thereof” (Purdue Research Foundation, priority 2005, dated 2017)
Read-outs that look alike come from different tables or passages of the source.

Key:
Format in all cases: cell-based
[1] = system: all human cancer cell lines successfully tested; assay: NCI screen mean graph midpoint (MGM) for growth inhibition
Procedure: COMPARE screening. The compounds described herein were examined for antiproliferative activity against the human cancer cell lines in the National Cancer Institute screen (COMPARE screening), in which the activity of each compound was evaluated with approximately 55 different cancer cell lines of diverse tumor origins. […] Therefore, the MGM value represents an overall assessment of toxicity of the compound across numerous cell lines.
(§1) Selected compounds were tested for antiproliferative activity in the National Cancer Institute's developmental therapeutics assay 60 cell line screen (NCI60). The cells were incubated with the tested compounds at 100, 10, 1, 0.1, and 0.01 μM concentrations for 48 h before treatment with sulforhodamine B dye. Optical densities were recorded, and their ratios relative to that of the control were plotted as percentage growth against the log 10 of the tested compound concentrations.
The cytotoxicities of the compounds to cultured cancer cells were measured in the National Cancer Institute's 60 cell line assay (a.k.a. NCI-60).

[2] = system: breast MDA-MB-435; assay: COMPARE screening (NCI human cancer cell line screen), cytotoxicity GI50
[3] = system: renal SN12C; assay: as above
Procedure: as §1

[4] = system: colon HCT-116; assay: as above
Procedure: as §1

[5] = system: CNS SF-539; assay: as above
Procedure: as §1

[6] = system: ovarian OVCAR-3; assay: as above
Procedure: as §1

[7] = system: melanoma UACC-62; assay: as above
Procedure: as §1

[8] = system: prostate DU-145; assay: as above
Procedure: as §1

[9] = system: lung HOP-62; assay: as above
Procedure: as §1

[10] = Table 1, average GI50 of all cell lines tested (approximately 55), test range 10^−8 to 10^−4 molar
[11] = Homo sapiens, MDA-MB-435, read-out: cytotoxicity (GI50) breast MDA-MB-435
[12] = Homo sapiens, SN12C, read-out: cytotoxicity (GI50) renal SN12C
[13] = Homo sapiens, HCT-116, read-out: cytotoxicity (GI50) colon HCT-116
[14] = Homo sapiens, CNSSF-539, read-out: cytotoxicity (GI50) CNS SF-539
[15] = Homo sapiens, OVCAR-3, read-out: cytotoxicity (GI50) ovarian OVCAR-3
[16] = Homo sapiens, UACC-62, read-out: cytotoxicity (GI50) melanoma UACC-62
[17] = Homo sapiens, DU-145, read-out: cytotoxicity (GI50) prostate DU-145
[18] = Homo sapiens, HOP-62, read-out: cytotoxicity (GI50) lung HOP-62
[19] = all human cancer cell lines successfully tested

| Compound | MGM (mean GI50 across cell lines) [1, 10] | GI50 [2, 11] | GI50 [3, 12] | GI50 [4, 13] | GI50 [5, 14] | GI50 [6, 15] | GI50 [7, 16] | GI50 [8, 17] | GI50 [9, 18] | GI50 [2] | GI50 [3] | GI50 [4] | GI50 [5] | GI50 [6] | GI50 [7] | GI50 [8] | GI50 [9] | MGM (mean graph midpoint for growth inhibition) [1, 10] | further results |
| --- | --- | --- | --- | --- | --- | --- | --- | --- | --- | --- | --- | --- | --- | --- | --- | --- | --- | --- | --- |
| Nn1c2c(c3ccccc3c1=O)C(=O)c1ccccc1-2 [Compound 5z, 6-Amino-5,6-dihydro-5,11-diketo-11H-indeno[1,2-c]isoquinoline] | 39800 nM | > 50.1 µM | > 50.1 µM | > 50.1 µM | 28.2 µM | > 50.1 µM | > 50.1 µM | > 50.1 µM | 24.5 µM |  |  |  |  |  |  |  |  |  |  |
| O=C1c2ccccc2-c2oc(=O)c3cc([N+](=O)[O-])ccc3c21 [Compound 4c, 3-nitrobenz[d]indeno[1,2-b]pyran-5,11-dione] | 64600 nM | > 100 µM | > 100 µM | 47.9 µM | > 100 µM | > 100 µM | 25.1 µM | > 100 µM | 18.2 µM |  |  |  |  |  |  |  |  |  |  |
| CC(C)(C)OC(=O)NCCCCCCCCCCn1c2c(c3ccccc3c1=O)C(=O)c1ccccc1-2 [Compound 5ai, 6-(10′-tert-BOC-Aminodecyl)-5,6-dihydro-5,1-dioxo-11H-indeno[1,2-c]isoquinoline] | 52500 nM |  |  |  |  |  |  |  |  | > 100 µM | > 100 µM | 60.3 µM | 42.7 µM | > 100 µM | 43.6 µM | 97.7 µM | 28.8 µM |  |  |
| O=C1c2ccccc2-c2c1c1ccccc1c(=O)n2CCNCCO [Compound S-2, oracin, reference compound] |  |  |  |  |  |  |  |  |  | 2.56 µM | 0.95 µM | 1.12 µM | 1.65 µM | 3.85 µM | 1.42 µM | 1.28 µM | 1.62 µM | 1.90 ± 0.80 µM |  |
| COc1ccc2c(c1)C(=O)c1c-2n(CCCN(C)C)c(=O)c2cc([N+](=O)[O-])ccc12 [Compound 5bp] |  |  |  |  |  |  |  |  |  | < 0.01 µM | < 0.01 µM | < 0.01 µM | < 0.01 µM | 0.028 µM | < 0.01 µM | < 0.01 µM | < 0.01 µM | 0.020 ± 0.001 µM |  |
| CN(C)CCCn1c2c(c3cc4c(cc3c1=O)OCO4)C(=O)c1ccccc1-2 [Compound 5b] | 525 nM |  |  |  |  |  |  |  |  | 3.02 µM | 0.023 µM | < 0.01 µM | 2.69 µM | 2.63 µM | 0.3 µM | 2.04 µM | < 0.01 µM |  |  |
| COc1cc2c3c(n(CCCn4ccnc4)c(=O)c2cc1OC)-c1ccccc1C3=O [Compound 5e] | 33 nM |  |  |  |  |  |  |  |  | 0.014 µM | < 0.01 µM | 0.01 µM | < 0.01 µM | < 0.01 µM | < 0.01 µM | < 0.01 µM | < 0.01 µM |  |  |
| O=C1c2ccccc2-c2oc(=O)c3ccccc3c21 [Compound 4d, Benz[d]indeno[1,2-b]pyran-5,11-dione] | >100000 nM | > 100 µM | > 100 µM | > 100 µM | > 100 µM | > 100 µM | > 100 µM | > 100 µM | > 100 µM |  |  |  |  |  |  |  |  |  |  |
| Cl.NCCCCCn1c2c(c3ccccc3c1=O)C(=O)c1ccccc1-2 [Compound 5ao, 6-(5-Aminopentyl)-5,6-dihydro-5,11-diketo-11H-indeno[1,2-c]isoquinoline Hydrochloride] |  | 1.35 µM | 0.398 µM | 0.2 µM | 0.871 µM | 0.708 µM | 1.35 µM | 0.347 µM | 0.288 µM |  |  |  |  |  |  |  |  | 0.471 ± 0.054 µM |  |
| O=C(O)C(F)(F)F.O=C1c2ccccc2-c2c1c1ccccc1c(=O)n2CCCNCCn1c2c(c3ccccc3c1=O)C(=O)c1ccccc1-2 [Compound 14a, Bis{(5,6-dihydro-5,11-diketo-11H-indeno[1,2-c]isoquinoline)}-(6-ethyl,6′-propyl)ammonium Trifluoroacetate] |  |  |  |  |  |  |  |  |  | 2.24 µM | 11 µM | 1.05 µM | 14.5 µM | 8.91 µM | 5.01 µM | 1.91 µM | 0.977 µM |  | MGM (mean GI50 across cell lines) [1, 19]: 5250 nM |
| COc1cc2c3c(n(CCCn4cncn4)c(=O)c2cc1OC)-c1cc2c(cc1C3=O)OCO2.Cl [Compound 5n, 6-{3-[2-(1,2,4)]-Triazolyl-1-propyl}-5,6-dihydro-2,3-dimethoxy-8,9-methylenedioxy-5,11-dioxo-11H-indeno[1,2-c]isoquinoline Hydrochloride] | 3550 nM |  |  |  |  |  |  |  |  | > 100 µM | 0.085 µM | 1.91 µM | 0.288 µM | 61.7 µM | < 0.01 µM | 0.085 µM | 0.079 µM |  |  |
| COc1cc2c3c(n(CCCNc4nccs4)c(=O)c2cc1OC)-c1cc2c(cc1C3=O)OCO2.Cl.Cl [Compound 5o, 6-(3-Thiazolylamino-1-propyl)-5,6-dihydro-2,3-dimethoxy-8,9-methylenedioxy-5,1-dioxo-11H-indeno[1,2-c]isoquinoline Dihydrochloride] |  |  |  |  |  |  |  |  |  | < 0.01 µM | < 0.01 µM | < 0.01 µM | < 0.01 µM |  | 0.014 µM | < 0.01 µM | < 0.01 µM | 0.112 ± 0.066 µM | GI50 ([6]; Table 1, concentration corresponding to 50% growth inhibition, read-out: cytotoxicity (GI50) ovarian OVCAR-3): 0.041 µM |
| O=C(O)C(F)(F)F.O=C(O)C(F)(F)F.O=C1c2ccccc2-c2c1c1ccc([N+](=O)[O-])cc1c(=O)n2CCNCCCNCCn1c2c(c3ccc([N+](=O)[O-])cc3c1=O)C(=O)c1ccccc1-2 [Compound 14m, Bis-1,3-{(5,6-dihydro-5,11-diketo-3-nitro-11H-indeno[1,2-c]isoquinoline)-6-ethylamino}propane Bis{trifluoroacetate)] |  |  |  |  |  |  |  |  |  |  |  |  |  |  |  |  |  |  | MGM (mean graph midpoint for growth inhibition) [1, 19]: 0.354 ± 0.184 µM; GI50 ([2]; breast MDA-MB-435, concentration corresponding to 50% growth inhibition, read-out: cytotoxicity (GI50 in μM) breast MDA-MB-435): 0.437 µM; GI50 ([3]; renal SN12C, concentration corresponding to 50% growth inhibition, read-out: cytotoxicity (GI50 in μM) renal SN12C): 0.123 µM; GI50 ([4]; colon HCT-116, concentration corresponding to 50% growth inhibition, read-out: cytotoxicity (GI50 in μM) colon HCT-116): 0.044 µM; GI50 ([5]; CNS SF-539, concentration corresponding to 50% growth inhibition, read-out: cytotoxicity (GI50 in μM) CNS SF-539): 0.324 µM; GI50 ([6]; ovarian OVCAR-3, concentration corresponding to 50% growth inhibition, read-out: cytotoxicity (GI50 in μM) ovarian OVCAR-3): 0.245 µM; GI50 ([7]; melanoma UACC-62, concentration corresponding to 50% growth inhibition, read-out: cytotoxicity (GI50 in μM) melanoma UACC-62): 0.603 µM; GI50 ([8]; prostate DU-145, concentration corresponding to 50% growth inhibition, read-out: cytotoxicity (GI50 in μM) prostate DU-145): 0.813 µM; GI50 ([9]; lung HOP-62, concentration corresponding to 50% growth inhibition, read-out: cytotoxicity (GI50 in μM) lung HOP-62): 0.631 µM |
